Laboratory results as given in patent US8946234B2, “Halogen-substituted compounds” (Bayer CropScience AG, priority 2008, dated 2015).

test: physchem; assay type: physicochemical; settings: not given
Method in brief: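 Reversed-phase C18 HPLC (50×4.6 mm, 1.8 micron), 55 °C, 2.0 ml/min, acetonitrile/water with formic acid. Linear gradient 10% to 95% acetonitrile over 4.25 min, then 95% for 1.25 min. logP derived from retention per EEC Directive 79/831 Annex V.A8; MS detection.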

Compound	logP
Cn1nc(C(F)(F)F)c(Cl)c1C(=O)Nc1ccc(Cl)c(C(=O)NCC(F)(F)F)c1 [Ik-154]	3.20^a)
O=C(NCc1ccccc1)c1cc(NC(=O)c2cnc(C(F)(F)F)nc2C(F)(F)F)ccc1Cl [Ib-6]	3.39^a)
Cn1nc(C(F)(F)F)c(Cl)c1C(=O)Nc1ccc(Cl)c(C(=O)NC2CC2F)c1 (centres unmarked) [Ik-153]	2.86^a)
CN(C(=O)c1c(C(F)(F)F)c(C(F)(F)C(F)(F)F)nn1C)c1ccc(Cl)c(C(=O)NCC(F)(F)F)c1 [Ik-133]	3.66^a)
Cn1nc(C(F)(F)C(F)(F)F)c(C(F)(F)F)c1C(=O)Nc1ccc2c(c1)C(=O)OC2 [Ik-106]	3.20^a)
Cn1nc(C(F)(F)C(F)(F)F)c(C(F)(F)F)c1C(=O)Nc1cc(C(=O)NC2CC2)c(Cl)cn1 [Ik-318]	3.24^a)
Cn1nc(C(F)(F)C(F)(F)F)c(C(F)(F)F)c1C(=O)Nc1cc(C(=O)NCC(F)(F)F)c(F)cc1F [Ik-146]	3.64^a)
Cn1nc(C(F)(F)C(F)(F)F)c(C(F)(F)F)c1C(=O)Nc1cc(Cl)c(Br)c(C(=O)NCC(F)(F)F)c1 [Ik-215]	4.14^a)
Cn1nc(C(F)F)c(C(F)(F)F)c1C(=O)Nc1ccc(Cl)c(C(=O)NC2CC2)c1 [Ik-231]	2.46^a)
CC(C)NC(=O)c1cc(NC(=O)c2nccc(C(F)(F)F)c2Cl)ccc1Cl [Ie-2]	2.72^a)
Cn1nc(C(F)(F)C(F)(F)F)c(C(F)(F)F)c1C(=O)Nc1cc(C(=O)NC2CC2)c(F)cc1Cl [Ik-148]	3.53^a)
Cn1nc(C(F)(F)C(F)(F)F)c(C(F)(F)F)c1C(=O)Nc1ccc([N+](=O)[O-])c(C(=O)NCC(F)(F)F)c1 [Ik-181]	3.58^a)
Cn1nc(C(F)(F)F)c(C(F)(F)F)c1C(=O)Nc1ccc(Cl)c(C(=O)NC2CC2)c1 [Ik-195]	2.89^a)
CSc1c(Cl)cc(NC(=O)c2c(C(F)(F)F)c(C(F)(F)C(F)(F)F)nn2C)cc1C(=O)NC1CC1 [Ik-201]	3.80^a)
O=C(NCC=CCl)c1cc(NC(=O)c2cnc(C(F)(F)C(F)(F)F)nc2C(F)(F)F)ccc1Cl [Ib-10]	3.59^a)
O=C(NCC(F)(F)F)c1cc(NC(=O)c2cnc(C(F)(F)C(F)(F)F)nc2C(F)(F)C(F)(F)F)ccc1Cl [Ib-34]	3.94^a)
Cn1nc(C(F)(F)C(F)(F)F)c(C(F)(F)F)c1C(=O)Nc1cc(Br)c(Br)c(C(=O)NCc2ccccc2)c1 [Ik-208]	4.42^a)

Compound	logP
O=C(NCC(F)(F)F)c1cc(NC(=O)c2cnc(C(F)(F)F)nc2C(F)(F)F)ccc1Cl [Ib-4]	3.14^a)
Cn1nc(C(F)(F)F)c(Br)c1C(=O)Nc1ccc(Cl)c(C(=O)NCC(F)(F)F)c1 [Ik-160]	3.17^a)
Cn1nc(C(F)(F)C(F)(F)F)c(C(F)(F)F)c1C(=O)Nc1cc(C(=O)NC2CC2F)c(Cl)cn1 (centres unmarked) [Ik-314]	3.14^a)
Cn1nc(C(F)(F)C(F)(F)F)c(C(F)(F)F)c1C(=O)Nc1cc(F)c(I)c(C(=O)NCC=CCl)c1 [Ik-224]	3.99^a)
Cn1nc(C(F)(F)C(F)(F)F)c(C(F)(F)F)c1C(=O)Nc1cc(F)c(Br)c(C(=O)NCC(F)(F)F)c1 [Ik-228]	3.88^a)
CN(C(=O)c1c(C(F)(F)F)c(C(F)(F)C(F)(F)F)nn1C)c1ccc(Cl)c(C(=O)NC2CC2)c1 [Ik-132]	3.30^a)
Cn1nc(OCC(F)(F)F)c(I)c1C(=O)Nc1ccc(Cl)c(C(=O)NC2CC2)c1 [Ik-245]	2.85^a)
Cn1nc(C(F)(F)F)c(Cl)c1C(=O)Nc1ccc(Cl)c(C(=O)NCC=CCl)c1 [Ik-19]	3.22^a)
CSc1c(Br)cc(NC(=O)c2c(C(F)(F)F)c(C(F)(F)C(F)(F)F)nn2C)cc1C(=O)NCc1ccccc1 [Ik-199]	4.43^a)
Cn1nc(C(F)(F)C(F)(F)F)c(C(F)(F)F)c1C(=O)Nc1cc(Cl)c(I)c(C(=O)NC2CC2)c1 [Ik-204]	3.84^a)
Cn1nc(C(F)(F)C(F)(F)F)c(C(F)(F)F)c1C(=O)Nc1ccc(OC(F)F)c(C(=O)O)c1 [Ik-104]	3.23^a)
Cn1nc(C(F)(F)C(F)(F)F)c(C(F)(F)F)c1C(=O)Nc1cc(F)c(F)c(C(=O)NC2CC2)c1 [Ik-140]	3.60^a)
CC(NC(=O)c1cc(NC(=O)c2c(C(F)(F)F)c(C(F)(F)C(F)(F)F)nn2C)ccc1Br)C(F)(F)F (centres unmarked) [Ik-174]	3.95^a)
Cn1nc(OC(F)F)c(I)c1C(=O)Nc1ccc(Cl)c(C(=O)NCC(F)(F)F)c1 [Ik-241]	2.92^a)
CCOC(=O)c1cc(NC(=O)c2c(C(F)(F)F)c(C(F)(F)C(F)(F)F)nn2C)ccc1Cl [Ik-103]	4.42^a)
CC(C)(C)n1nc(C(F)(F)C(F)(F)F)c(C(F)(F)F)c1C(=O)Nc1ccc(Cl)c(C(=O)NC2CC2)c1 [Ik-167]	4.17^a)
Cn1nc(C(F)(F)C(F)(F)F)c(C(F)(F)F)c1C(=O)Nc1cc(Br)cc(C(=O)NC2CC2)c1 [Ik-221]	3.74^a)

same assay, conditions: HPLC method a), eluent acetonitrile/water with formic acid; read-out: logP

Compound	chromatographic logP
Cn1ccc(C(F)(F)C(F)(F)C(F)(F)C(F)(F)F)n1 [1-Methyl-3-nonafluorobutyl-1H-pyrazole]	3.38
Cn1nc(C(F)(F)C(F)(F)C(F)(F)C(F)(F)F)c(Br)c1C(=O)O [4-Bromo-1-methyl-3-nonafluorobutyl-1H-pyrazole-5-carboxylic acid]	3.17

same assay, conditions: HPLC phase inversion (reversed-phase) C18 column, HPLC method a), eluent acetonitrile/water with formic acid; read-out: logP

chromatographic logP	Compound
3.01	Cn1nc(OC(F)F)c(C(F)(F)F)c1C(=O)Nc1ccc(Cl)c(C(=O)NCC(F)(F)F)c1 [Ik-126, N-{4-Chloro-3-[(2,2,2-trifluoroethyl)carbamoyl]phenyl}-3-(difluoromethoxy)-1-methyl-4-(trifluoromethyl)-1H-pyrazole-5-carboxamide]
3.25	Cn1nc(C(F)(F)F)c(C(F)(F)F)c1C(=O)Nc1ccc(Cl)c(C(=O)NCC(F)(F)F)c1 [Ik-125, N-{4-Chloro-3-[(2,2,2-trifluoroethyl)carbamoyl]-phenyl}-1-methyl-3,4-bis(trifluoromethyl)-1H-pyrazole-5-carboxamide]
3.26	O=C(NCC(F)(F)F)c1cc(NC(=O)c2[nH]nc(C(F)(F)C(F)(F)F)c2C(F)(F)F)ccc1Cl [Ik-124, N-{4-Chloro-3-[(2,2,2-trifluoroethyl)carbamoyl]phenyl}-3-(pentafluoroethyl)-4-(trifluoromethyl)-1H-pyrazole-5-carboxamide]
1.3	COC(=O)c1cc(N)ncc1Cl [methyl 2-amino-5-chloroisonicotinate]
3.33	Cc1nc(C(=O)Nc2ccc(Cl)c(C(=O)NC3CC3)c2)c(C(F)(F)F)c(C(F)(F)C(F)(F)F)n1 [Ia-1, N-[4-Chloro-3-(cyclopropylcarbamoyl)phenyl]-2-methyl-6-(pentafluoroethyl)-5-(trifluoromethyl)pyrimidine-4-carboxamide]
3.59	Cn1nc(C(F)(F)C(F)(F)F)c(C(F)(F)F)c1C(=O)Nc1ccnc(C(=O)NC2CC2(F)F)c1 (centres unmarked) [Ik-130, N-[2-(2,2-Difluorocycloprop-1-ylcarbamoyl)pyrid-4-yl]-1-methyl-3-(pentafluoroethyl)-4-(trifluoromethyl)-1H-pyrazole-5-carboxamide]
2.76	Cn1nc(C(F)C2CC2)c(C(F)(F)F)c1C(=O)Nc1ccc(Cl)c(C(=O)NC2CC2)c1 (centres unmarked) [Ik-233, N-[4-Chloro-3-(cyclopropylcarbamoyl)phenyl]-3-[cyclopropyl(fluoro)methyl]-1-methyl-4-(trifluoromethyl)-1H-pyrazole-5-carboxamide]

same assay, conditions: HPLC phase inversion (reversed-phase) C18 column, HPLC on C18 phase inversion column, method a); read-out: logP

chromatographic logP	Compound
3.01	Cn1nc(OC(F)F)c(C(F)(F)F)c1C(=O)Nc1ccc(Cl)c(C(=O)NCC(F)(F)F)c1 [Ik-126, N-{4-Chloro-3-[(2,2,2-trifluoroethyl)carbamoyl]phenyl}-3-(difluoromethoxy)-1-methyl-4-(trifluoromethyl)-1H-pyrazole-5-carboxamide]
3.25	Cn1nc(C(F)(F)F)c(C(F)(F)F)c1C(=O)Nc1ccc(Cl)c(C(=O)NCC(F)(F)F)c1 [Ik-125, N-{4-Chloro-3-[(2,2,2-trifluoroethyl)carbamoyl]-phenyl}-1-methyl-3,4-bis(trifluoromethyl)-1H-pyrazole-5-carboxamide]
3.26	O=C(NCC(F)(F)F)c1cc(NC(=O)c2[nH]nc(C(F)(F)C(F)(F)F)c2C(F)(F)F)ccc1Cl [Ik-124, N-{4-Chloro-3-[(2,2,2-trifluoroethyl)carbamoyl]phenyl}-3-(pentafluoroethyl)-4-(trifluoromethyl)-1H-pyrazole-5-carboxamide]
3.59	Cn1nc(C(F)(F)C(F)(F)F)c(C(F)(F)F)c1C(=O)Nc1ccnc(C(=O)NC2CC2(F)F)c1 (centres unmarked) [Ik-130, N-[2-(2,2-Difluorocycloprop-1-ylcarbamoyl)pyrid-4-yl]-1-methyl-3-(pentafluoroethyl)-4-(trifluoromethyl)-1H-pyrazole-5-carboxamide]
